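Values below derive from 48-hour exposures of cells grown in 96-well plates, with endpoints linearly interpolated between the two concentrations bracketing the appropriate inhibition level. TGI denotes the concentration required for complete inhibition of growth.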 Where a SMILES comes first, the peptide text is derived from it. [ ]: non-standard residue; d: D form. Ac5c = NC1(C(=O)O)CCCC1
Key:
Experiment in all cases: NCI tumour cell line growth inhibition, 48 h
786-0 renal = tested on: 786-0 renal
A498 renal = tested on: A498 renal
A549 NSCLC = tested on: A549 NSCLC
ACHN renal = tested on: ACHN renal
BT-549 breast = tested on: BT-549 breast
CAKI-1 renal = tested on: CAKI-1 renal
CCRF-CEM leukemia = tested on: CCRF-CEM leukemia
COLO 205 colon = tested on: COLO 205 colon
DU-145 prostate = tested on: DU-145 prostate
EKVX NSCLC = tested on: EKVX NSCLC
HCC-2998 colon = tested on: HCC-2998 colon
HCT-116 colon = tested on: HCT-116 colon
HCT-15 colon = tested on: HCT-15 colon
HL-60(TB) leukemia = tested on: HL-60(TB) leukemia
HOP-62 NSCLC = tested on: HOP-62 NSCLC
HOP-92 NSCLC = tested on: HOP-92 NSCLC
HS 578T breast = tested on: HS 578T breast
HT29 colon = tested on: HT29 colon
IGROV1 ovarian = tested on: IGROV1 ovarian
K-562 leukemia = tested on: K-562 leukemia
KM12 colon = tested on: KM12 colon
LOX IMVI melanoma = tested on: LOX IMVI melanoma
M14 melanoma = tested on: M14 melanoma
MALME-3M melanoma = tested on: MALME-3M melanoma
MCF7 breast = tested on: MCF7 breast
MDA-MB-231 breast = tested on: MDA-MB-231 breast
MDA-MB-435 = tested on: MDA-MB-435
MDA-N = tested on: MDA-N
MOLT-4 leukemia = tested on: MOLT-4 leukemia
NCI-H226 lung = tested on: NCI-H226 lung
NCI-H23 lung = tested on: NCI-H23 lung
NCI-H460 lung = tested on: NCI-H460 lung
NCI-H522 lung = tested on: NCI-H522 lung
NCI/ADR-RES ovarian = tested on: NCI/ADR-RES ovarian
OVCAR-3 ovarian = tested on: OVCAR-3 ovarian
OVCAR-4 ovarian = tested on: OVCAR-4 ovarian
OVCAR-5 ovarian = tested on: OVCAR-5 ovarian
OVCAR-8 ovarian = tested on: OVCAR-8 ovarian
PC-3 prostate = tested on: PC-3 prostate
RPMI-8226 leukemia = tested on: RPMI-8226 leukemia
RXF 393 renal = tested on: RXF 393 renal
SF-268 CNS = tested on: SF-268 CNS
SF-295 CNS = tested on: SF-295 CNS
SF-539 CNS = tested on: SF-539 CNS
SK-MEL-2 melanoma = tested on: SK-MEL-2 melanoma
SK-MEL-28 melanoma = tested on: SK-MEL-28 melanoma
SK-MEL-5 melanoma = tested on: SK-MEL-5 melanoma
SK-OV-3 ovarian = tested on: SK-OV-3 ovarian
SN12C renal = tested on: SN12C renal
SNB-19 CNS = tested on: SNB-19 CNS
SNB-75 CNS = tested on: SNB-75 CNS
SR leukemia = tested on: SR leukemia
SW-620 colon = tested on: SW-620 colon
T-47D breast = tested on: T-47D breast
TK-10 renal = tested on: TK-10 renal
U251 CNS = tested on: U251 CNS
UACC-257 melanoma = tested on: UACC-257 melanoma
UACC-62 melanoma = tested on: UACC-62 melanoma
UO-31 renal = tested on: UO-31 renal

Nc1nc(Cl)c(N)c(NCC2(CO)CCC2)n1
TGI (786-0 renal): > 100 µM | TGI (A498 renal): > 100 µM | TGI (A549 NSCLC): > 100 µM | TGI (ACHN renal): > 100 µM | TGI (BT-549 breast): > 100 µM | TGI (CAKI-1 renal): > 100 µM | TGI (CCRF-CEM leukemia): > 100 µM | TGI (COLO 205 colon): > 100 µM | TGI (DU-145 prostate): > 100 µM | TGI (EKVX NSCLC): > 100 µM | TGI (HCC-2998 colon): > 100 µM | TGI (HCT-116 colon): > 100 µM | TGI (HCT-15 colon): > 100 µM | TGI (HL-60(TB) leukemia): > 100 µM | TGI (HOP-62 NSCLC): > 100 µM | TGI (HOP-92 NSCLC): > 100 µM | TGI (HS 578T breast): > 100 µM | TGI (HT29 colon): > 100 µM | TGI (IGROV1 ovarian): > 100 µM | TGI (K-562 leukemia): > 100 µM | TGI (KM12 colon): > 100 µM | TGI (LOX IMVI melanoma): > 100 µM | TGI (M14 melanoma): > 100 µM | TGI (MALME-3M melanoma): > 100 µM | TGI (MCF7 breast): > 100 µM | TGI (MDA-MB-231 breast): > 100 µM | TGI (MDA-MB-435): > 100 µM | TGI (MDA-N): > 100 µM | TGI (MOLT-4 leukemia): > 100 µM | TGI (NCI-H226 lung): > 100 µM | TGI (NCI-H23 lung): > 100 µM | TGI (NCI-H460 lung): > 100 µM | TGI (NCI-H522 lung): > 100 µM | TGI (NCI/ADR-RES ovarian): > 100 µM | TGI (OVCAR-3 ovarian): > 100 µM | TGI (OVCAR-4 ovarian): > 100 µM | TGI (OVCAR-5 ovarian): > 100 µM | TGI (OVCAR-8 ovarian): > 100 µM | TGI (PC-3 prostate): > 100 µM | TGI (RPMI-8226 leukemia): > 100 µM | TGI (RXF 393 renal): > 100 µM | TGI (SF-268 CNS): > 100 µM | TGI (SF-295 CNS): > 100 µM | TGI (SF-539 CNS): > 100 µM | TGI (SK-MEL-2 melanoma): > 100 µM | TGI (SK-MEL-28 melanoma): > 100 µM | TGI (SK-MEL-5 melanoma): > 100 µM | TGI (SK-OV-3 ovarian): > 100 µM | TGI (SN12C renal): > 100 µM | TGI (SNB-19 CNS): > 100 µM | TGI (SNB-75 CNS): > 100 µM | TGI (SR leukemia): > 100 µM | TGI (SW-620 colon): > 100 µM | TGI (T-47D breast): > 100 µM | TGI (TK-10 renal): > 100 µM | TGI (U251 CNS): > 100 µM | TGI (UACC-257 melanoma): > 100 µM | TGI (UACC-62 melanoma): > 100 µM | TGI (UO-31 renal): > 100 µM

COc1ccc(/C=C2\CCC(CNc3cc(C)on3)C2=O)cc1 (stereo unspecified)
TGI (786-0 renal): > 100 µM | TGI (A498 renal): > 100 µM | TGI (A549 NSCLC): > 100 µM | TGI (ACHN renal): > 100 µM | TGI (BT-549 breast): > 100 µM | TGI (CAKI-1 renal): > 100 µM | TGI (CCRF-CEM leukemia): > 100 µM | TGI (COLO 205 colon): > 100 µM | TGI (DU-145 prostate): > 100 µM | TGI (EKVX NSCLC): > 100 µM | TGI (HCC-2998 colon): > 100 µM | TGI (HCT-116 colon): > 100 µM | TGI (HCT-15 colon): > 100 µM | TGI (HL-60(TB) leukemia): > 21.5 µM | TGI (HOP-62 NSCLC): > 100 µM | TGI (HOP-92 NSCLC): > 100 µM | TGI (HS 578T breast): > 100 µM | TGI (HT29 colon): > 100 µM | TGI (IGROV1 ovarian): > 100 µM | TGI (K-562 leukemia): > 100 µM | TGI (KM12 colon): > 100 µM | TGI (LOX IMVI melanoma): > 100 µM | TGI (M14 melanoma): > 100 µM | TGI (MALME-3M melanoma): > 100 µM | TGI (MCF7 breast): > 100 µM | TGI (MDA-MB-231 breast): > 100 µM | TGI (MDA-MB-435): > 100 µM | TGI (MDA-N): > 100 µM | TGI (MOLT-4 leukemia): > 100 µM | TGI (NCI-H226 lung): > 100 µM | TGI (NCI-H23 lung): > 100 µM | TGI (NCI-H460 lung): > 100 µM | TGI (NCI-H522 lung): > 100 µM | TGI (NCI/ADR-RES ovarian): > 100 µM | TGI (OVCAR-3 ovarian): > 100 µM | TGI (OVCAR-4 ovarian): > 100 µM | TGI (OVCAR-5 ovarian): > 100 µM | TGI (OVCAR-8 ovarian): > 100 µM | TGI (PC-3 prostate): > 100 µM | TGI (RPMI-8226 leukemia): > 100 µM | TGI (RXF 393 renal): > 21.5 µM | TGI (SF-268 CNS): > 100 µM | TGI (SF-295 CNS): > 100 µM | TGI (SF-539 CNS): > 100 µM | TGI (SK-MEL-2 melanoma): > 100 µM | TGI (SK-MEL-28 melanoma): > 100 µM | TGI (SK-MEL-5 melanoma): > 100 µM | TGI (SK-OV-3 ovarian): > 100 µM | TGI (SN12C renal): > 100 µM | TGI (SNB-19 CNS): > 95.5 µM | TGI (SNB-75 CNS): > 76.4 µM | TGI (SR leukemia): > 100 µM | TGI (SW-620 colon): > 100 µM | TGI (T-47D breast): > 91.1 µM | TGI (TK-10 renal): > 100 µM | TGI (U251 CNS): > 100 µM | TGI (UACC-257 melanoma): > 100 µM | TGI (UACC-62 melanoma): > 100 µM | TGI (UO-31 renal): > 100 µM

NC1(C(=O)NC2(C(=O)O)CCCC2)CCCC1 (H-[Ac5c]-[Ac5c]-OH)
TGI (786-0 renal): > 100 µM | TGI (A498 renal): > 100 µM | TGI (A549 NSCLC): > 100 µM | TGI (ACHN renal): > 100 µM | TGI (BT-549 breast): > 100 µM | TGI (CAKI-1 renal): > 100 µM | TGI (CCRF-CEM leukemia): > 100 µM | TGI (COLO 205 colon): > 100 µM | TGI (DU-145 prostate): > 100 µM | TGI (EKVX NSCLC): > 100 µM | TGI (HCT-116 colon): > 100 µM | TGI (HCT-15 colon): > 100 µM | TGI (HL-60(TB) leukemia): > 100 µM | TGI (HOP-62 NSCLC): > 100 µM | TGI (HOP-92 NSCLC): > 100 µM | TGI (HS 578T breast): > 100 µM | TGI (HT29 colon): > 100 µM | TGI (IGROV1 ovarian): > 100 µM | TGI (K-562 leukemia): > 100 µM | TGI (KM12 colon): > 100 µM | TGI (LOX IMVI melanoma): > 100 µM | TGI (M14 melanoma): > 100 µM | TGI (MALME-3M melanoma): > 100 µM | TGI (MCF7 breast): > 100 µM | TGI (MDA-MB-231 breast): > 100 µM | TGI (MDA-MB-435): > 100 µM | TGI (MDA-N): > 100 µM | TGI (MOLT-4 leukemia): > 100 µM | TGI (NCI-H226 lung): > 100 µM | TGI (NCI-H23 lung): > 100 µM | TGI (NCI-H460 lung): > 100 µM | TGI (NCI-H522 lung): > 100 µM | TGI (NCI/ADR-RES ovarian): > 100 µM | TGI (OVCAR-3 ovarian): > 100 µM | TGI (OVCAR-4 ovarian): > 100 µM | TGI (OVCAR-5 ovarian): > 100 µM | TGI (OVCAR-8 ovarian): > 100 µM | TGI (PC-3 prostate): > 100 µM | TGI (RPMI-8226 leukemia): > 100 µM | TGI (RXF 393 renal): > 100 µM | TGI (SF-268 CNS): > 100 µM | TGI (SF-295 CNS): > 100 µM | TGI (SF-539 CNS): > 100 µM | TGI (SK-MEL-2 melanoma): > 100 µM | TGI (SK-MEL-28 melanoma): > 100 µM | TGI (SK-MEL-5 melanoma): > 100 µM | TGI (SK-OV-3 ovarian): > 100 µM | TGI (SN12C renal): > 100 µM | TGI (SNB-19 CNS): > 100 µM | TGI (SNB-75 CNS): > 100 µM | TGI (SR leukemia): > 100 µM | TGI (SW-620 colon): > 100 µM | TGI (T-47D breast): > 100 µM | TGI (TK-10 renal): > 100 µM | TGI (U251 CNS): > 100 µM | TGI (UACC-257 melanoma): > 100 µM | TGI (UACC-62 melanoma): > 100 µM | TGI (UO-31 renal): > 100 µM

Reference: PubChem BioAssay (NCI)
